One data set is described as follows: in vitro. The note with it: human.
The subject of data set [1] is Huh7 cells expressing a subgenomic RNA replicon of Con1 (genotype 1b) sequence origin. Nature of the data set: microbe, parasite or virus in culture. The note with it: Hepatitis C virus; for IC90: Huh-7.
[2] abbreviates: Huh-7, read-out: IC50 (uM) [SG].
Where [3] appears, read: Huh-7, read-out: Max Effect@CC30 (inhibition).
[4] abbreviates: GETYPE1B, Huh-7, 72 h, read-out: Max Effect @CC30 (inhibition).

Read-outs that look alike come from different tables or passages of the source.

As to `CN[C@H]1CC[C@@H](c2ccc(Cl)c(Cl)c2)c2ccc(CSC)cc21` [Sertraline A-Ring Methylsulfide, (1S,4S)-4-(3,4-dichlorophenyl)-N-methyl-7-(methylthiomethyl)-1,2,3,4-tetrahydronaphthalen-1-amine], the CC50 in the data set “in vitro” (CC50 (uM) [SG]) was found to be 6.18 µM. For the same compound, the IC50 in data set [1] (setting [2]) was determined as 4.18 µM. Besides, the Emax in data set [1] (setting [3]) turned out to be 14.8%.

On to `CSc1ccc(Oc2ccc(S(N)(=O)=O)cc2CN2CCOCC2)cc1C` [Compound 82, 4-(3-methyl-4-(methylthio)phenoxy)-3-(morpholinomethyl)benzenesulfonamide], for which the CC50 in the data set “in vitro” (CC50 (uM) [SG]) was greater than 50 µM. For the same compound, the IC50 in data set [1] (setting [2]) was 20.8 µM.

Regarding `CSc1ccc(Oc2ccc(S(=O)(=O)NC3CC3)cc2CN(C)C)cc1C` [Compound 13, N-cyclopropyl-3-((dimethylamino)methyl)-4-(3-methyl-4-(methylthio)phenoxy)benzenesulfonamide], the CC50 in the data set “in vitro” (CC50 (uM) [SG]) stood at 41.8 µM. Moreover, the IC50 in data set [1] (setting [2]) is 25.5 µM.

With `CN[C@H]1CC[C@@H](c2ccc(Cl)c(Cl)c2)c2ccc(C(=O)Nc3ccccc3)cc21` [Sertraline A-Ring Benzamide, (5S,8S)-5-(3,4-dichlorophenyl)-8-(methylamino)-N-phenyl-5,6,7,8-tetrahydronaphthalene-2-carboxamide], the CC50 in the data set “in vitro” (CC50 (uM) [SG]) is 3.89 µM. Further, the 50% inhibitory concentration (IC50) in data set [1] (setting [2]) turned out to be 2.73 µM. Besides, the Emax in data set [1] (setting [3]) stood at 48.6%.

In “in vitro” (CC50 (uM) [SG]), `CSc1ccc(Oc2ccc(C#N)cc2CN(C)C)cc1C` [Compound 7, 3-((dimethylamino)methyl)-4-(3-methyl-4-(methylthio)phenoxy)benzonitrile] gave a CC50 greater than 50 µM. The 90% effect concentration (IC90) in data set [1] is 11.5 µM. Moreover, in data set [1] (setting [2]), the IC50 was found to be 6.4 µM. Besides, the Emax in data set [1] (setting [3]) was determined as 96.7%.

Take `CN[C@H]1CC[C@@H](c2ccc(Cl)c(Cl)c2)c2ccc(S(=O)(=O)NCCO)cc21` [Sertraline Sulfonamide Ethanol, (5S,8S)-5-(3,4-dichlorophenyl)-N-(2-hydroxyethyl)-8-(methylamino)-5,6,7,8-tetrahydronaphthalene-2-sulfonamide]: the CC50 in “in vitro” (CC50 (uM)) and in “in vitro” (CC50 (uM) [SG]) was 13.8 µM each time. The Emax in data set [1] (setting [4]) and in data set [1] (setting [3]) was 80% throughout. The IC50 stood at 8.13 µM in data set [1] (Huh-7, 72 h) and 8.13 µM in data set [1] (setting [2]).

`CN[C@H]1CC[C@@H](c2ccc(Cl)c(Cl)c2)c2ccc(C(=O)NC3CC3)cc21` [(5S,8S)—N-cyclopropyl-5-(3,4-dichlorophenyl)-8-(methylamino)-5,6,7,8-tetrahydronaphthalene-2-carboxamide] had a CC50 in the data set “in vitro” (CC50 (uM) [SG]) of 8.87 µM. In addition, the half-maximal inhibitory concentration (IC50) in data set [1] (setting [2]) was 2.75 µM. Also, the Emax in data set [1] (setting [3]) was determined as 88%.

Consider `CSc1ccc(Oc2ccc(S(N)(=O)=O)cc2CN2CCCN(C)CC2)cc1C` [Compound 74, 3-((4-methyl-1,4-diazepan-1-yl)methyl)-4-(3-methyl-4-(methylthio)phenoxy)benzenesulfonamide], for which the CC50 in the data set “in vitro” (CC50 (uM) [SG]) came to 35.9 µM. Besides, in data set [1], the IC90 was 16.1 µM. Moreover, the half-inhibitory concentration (IC50) in data set [1] (setting [2]) was 7.31 µM.

For the compound `CSc1ccc(Oc2ccc(C(N)=O)cc2CN(C)C)cc1C` [Compound 10, 3-((dimethylamino)methyl)-4-(3-methyl-4-(methylthio)phenoxy)benzamide], in “in vitro” (CC50 (uM) [SG]), the CC50 is greater than 50 µM. Further, the IC50 in data set [1] (setting [2]) amounted to 26.9 µM. Besides, in data set [1] (setting [3]), the Emax was found to be 80.7%.

On to `CNS(=O)(=O)c1ccc(Oc2ccc(SC)c(C)c2)c(CN(C)C)c1` [Compound 6, 3-((dimethylamino)methyl)-N-methyl-4-(3-methyl-4-(methylthio)phenoxy)benzenesulfonamide], for which the CC50 in the data set “in vitro” (CC50 (uM) [SG]) was 45.3 µM. In data set [1], this compound registered an IC90 of 14.8 µM. In addition, the IC50 in data set [1] (setting [2]) stood at 5.8 µM. The Emax in data set [1] (setting [3]) stood at 93.2%.

With `CN[C@H]1CC[C@@H](c2ccc(Cl)c(Cl)c2)c2ccc(C(=O)Nc3ccccn3)cc21` [Sertraline A-ring Pyridine Carboxamide, (5S,8S)-5-(3,4-dichlorophenyl)-8-(methylamino)-N-(pyridin-2-yl)-5,6,7,8-tetrahydronaphthalene-2-carboxamide], the CC50 in the data set “in vitro” (CC50 (uM) [SG]) worked out at 7.05 µM. In addition, the IC50 in data set [1] (setting [2]) was determined as 4.43 µM. In data set [1] (setting [3]), the Emax was 61.3%.

Turning to `CSc1ccc(Oc2ccc(S(N)(=O)=O)cc2CNCCN(C)C)cc1C` [Compound 96, 3-((2-(dimethylamino)ethylamino)methyl)-4-(3-methyl-4-(methylthio)phenoxy)benzenesulfonamide], the CC50 in “in vitro” (CC50 (uM) [SG]) amounted to 19.4 µM. The compound further gave an IC90 in data set [1] of 5.89 µM. Moreover, the IC50 in data set [1] (setting [2]) was found to be 2.77 µM.

The compound `CSc1ccc(N2CN(C)Cc3cc(S(N)(=O)=O)ccc32)cc1C` [Compound 107, 3-methyl-1-(3-methyl-4-(methylthio)phenyl)-1,2,3,4-tetrahydroquinazoline-6-sulfonamide] showed a CC50 in the data set “in vitro” (CC50 (uM) [SG]) greater than 50 µM. Further, the IC90 in data set [1] was 12.8 µM. For the same compound, the IC50 in data set [1] (setting [2]) worked out at 4.84 µM.

In the case of `OC1CC[C@@H](c2ccc(Cl)c(Cl)c2)c2ccccc21` (stereo partly drawn) [Alcohol Sertraline-P1, (S)-4-(3,4-dichlorophenyl)-1,2,3,4-tetrahydronaphthalen-1-ol], the CC50 in “in vitro” (CC50 (uM) [SG]) is greater than 50 µM. Also, in data set [1] (setting [2]), the IC50 was 24.5 µM. Besides, the Emax in data set [1] (setting [3]) amounted to 89.2%.

For the compound `CSc1ccc(Oc2ccc(S(N)(=O)=O)cc2CN2C[C@@H](O)C[C@@H]2CO)cc1C` [Compound 110, 3-(((2S,4R)-4-hydroxy-2-(hydroxymethyl)pyrrolidin-1-yl)methyl)-4-((3-methyl-4-methylthio)phenoxy)benzenesulfonamide], in “in vitro” (CC50 (uM) [SG]), the CC50 was greater than 50 µM. The IC50 in data set [1] (setting [2]) was 13.1 µM.

`CNCc1cc(S(N)(=O)=O)ccc1Oc1ccc([N+](=O)[O-])c(C)c1` [Compound 76, 4-(3-methyl-4-nitrophenoxy)-3-((methylamino)methyl)benzenesulfonamide] displayed a CC50 in the data set “in vitro” (CC50 (uM) [SG]) greater than 50 µM. Besides, the IC50 in data set [1] (setting [2]) was 31 µM.

With `CSc1ccc(Oc2ccc(S(N)(=O)=O)cc2N)cc1C` [Compound 58, 3-amino-4-(3-methyl-4-(methylthio)phenoxy)benzenesulfonamide], the CC50 in “in vitro” (CC50 (uM) [SG]) was greater than 50 µM. The IC50 in data set [1] (setting [2]) is 15.3 µM.

The compound `CSc1ccc(Oc2ccc(S(N)(=O)=O)cc2CNC[C@@H](C)O)cc1C` [Compound 68, (R)-3-((2-hydroxypropylamino)methyl)-4-(3-methyl-4-(methylthio)phenoxy)benzenesulfonamide] registered a CC50 in the data set “in vitro” (CC50 (uM) [SG]) greater than 50 µM. The compound also came in with a concentration for an effect of 90% (IC90) in data set [1] of 15.3 µM. In addition, in data set [1] (setting [2]), the IC50 came out at 4.34 µM.

Consider `CSc1ccc(Oc2ccc(S(N)(=O)=O)cc2CN2CCN(C(C)C)CC2)cc1C` [Compound 106, 3-((4-isopropylpiperazin-1-yl)methyl)-4-(3-methyl-4-(methylthio)phenoxy)benzenesulfonamide], for which, in the data set “in vitro” (CC50 (uM) [SG]), the CC50 worked out at 24.3 µM. In data set [1], it took 8.21 µM to reach the 90% level (IC90). The IC50 in data set [1] (setting [2]) stood at 3.57 µM.

As to `CN[C@H]1CC[C@@H](c2ccc(Cl)c(Cl)c2)c2ccc(CS(=O)(=O)c3ccccc3)cc21` [(1S,4S)-4-(3,4-dichlorophenyl)-N-methyl-7-(phenylsulfonylmethyl)-1,2,3,4-tetrahydronaphthalen-1-amine], the CC50 in the data set “in vitro” (CC50 (uM) [SG]) came to 6.7 µM. In addition, the IC50 in data set [1] (setting [2]) amounted to 6.24 µM.

In “in vitro” (CC50 (uM) [SG]), `CSc1ccc(Oc2ccc(S(N)(=O)=O)cc2CN2CC[C@@H](O)C2)cc1C` [Compound 67, (R)-3-((3-hydroxypyrrolidin-1-yl)methyl)-4-(3-methyl-4-(methylthio)phenoxy)benzenesulfonamide] returned a CC50 greater than 50 µM. It took 7.4 µM to reach the 90% level in data set [1] (IC90). The IC50 in data set [1] (setting [2]) stood at 2.26 µM.

On to `CC(=O)Nc1ccc2c(c1)C(C(C)C)CCC2c1ccc(Cl)c(Cl)c1` (stereo not shown) [N-(5-(3,4-dichlorophenyl)-8-isopropyl-5,6,7,8-tetrahydronaphthalen-2-yl)acetamide], for which the CC50 in “in vitro” (CC50 (uM) [SG]) is greater than 50 µM. Moreover, the 90% effect level in data set [1] (IC90) was put at 37.7 µM. Also, the IC50 in data set [1] (setting [2]) amounted to 15.8 µM.

In the data set “in vitro” (CC50 (uM) [SG]), `CC(=O)N(C)c1ccc2c(c1)[C@@H](N(C)C)CC[C@H]2c1ccc(Cl)c(Cl)c1` displayed a CC50 of 14.6 µM. Besides, the IC50 in data set [1] (setting [2]) was determined as 3.79 µM. Moreover, the Emax in data set [1] (setting [3]) was 91.7%.

For `CNC1CCC(c2cccc(OC)c2)c2ccccc21` (stereo not shown) [Sertraline B ring m-Methoxy, 4-(3-methoxyphenyl)-N-methyl-1,2,3,4-tetrahydronaphthalen-1-amine], the CC50 in the data set “in vitro” (CC50 (uM) [SG]) is greater than 50 µM. The IC50 in data set [1] (setting [2]) was determined as 28.8 µM.

On to `CSc1ccc(Oc2ccc(S(=O)(=O)NCc3ccccc3)cc2CN(C)C)cc1C` [Compound 14, N-benzyl-3-((dimethylamino)methyl)-4-(3-methyl-4-(methylthio)phenoxy)benzenesulfonamide], for which, in the data set “in vitro” (CC50 (uM) [SG]), the CC50 came out at 16.9 µM. In data set [1] (setting [2]), the half-inhibitory concentration (IC50) worked out at 11.4 µM. The Emax in data set [1] (setting [3]) was 59%.

Regarding `CN[C@@H]1CC[C@H](c2ccc(Cl)c(Cl)c2)c2ccccc21` [1R,4R Sertraline Enantiomer, (1R,4R)-4-(3,4-dichlorophenyl)-N-methyl-1,2,3,4-tetrahydronaphthalen-1-amine], the CC50 at 72 h in “in vitro” (CC50 (uM)) stood at 14.3 µM. This compound came in with a CC50 in “in vitro” (CC50 (uM) [SG]) of 14.6 ± 0.37 µM. The Emax in data set [1] (setting [4]) was 42%; in data set [1] (setting [3]), 58.7 ± 23.6%.

Consider `CNCc1cc(Br)ccc1Oc1cccc(OC)c1` [Compound 37, (5-bromo-2-(3-methoxyphenoxy)phenyl)-N-methylmethanamine], for which, in the data set “in vitro” (CC50 (uM) [SG]), the CC50 came to 46.9 µM. In data set [1] (setting [2]), the IC50 was 27.7 µM. Moreover, in data set [1] (setting [3]), the Emax is 12.4%.

The compound `CN(C)[C@H]1CC[C@@H](c2ccc(Cl)c(Cl)c2)c2ccc(C(=O)NC3CC3)cc21` [(5S,8S)—N-cyclopropyl-5-(3,4-dichlorophenyl)-8-(dimethylamino)-5,6,7,8-tetrahydronaphthalene-2-carboxamide] returned a CC50 in the data set “in vitro” (CC50 (uM) [SG]) of 25.4 µM. Moreover, the half-inhibitory concentration (IC50) in data set [1] (setting [2]) stood at 7.3 µM.

For `CSc1ccc(Oc2ccc(S(N)(=O)=O)cc2CN2CC[C@H](N(C)C)C2)cc1C` [Compound 88, (S)-3-((3-(dimethylamino)pyrrolidin-1-yl)methyl)-4-(3-methyl-4-(methylthio)phenoxy)benzenesulfonamide], the CC50 in the data set “in vitro” (CC50 (uM) [SG]) was 39.4 µM. Moreover, the IC90 in data set [1] was determined as 13.2 µM. Besides, in data set [1] (setting [2]), the IC50 worked out at 4.15 µM.

The record behind these values is patent publication US20100009970A1, “COMPOSITIONS AND METHODS FOR TREATMENT OF VIRAL DISEASES” (Combinatorx (Singapore) Pte. Ltd., priority 2008, published 2010).
